From US20040186022A1, “Enhanced herbicides” (priority 1999, published 2004)

Legend:
[1] = Measurement of pH values for test desiccants (Example 56); format: physicochemical
Turf and Shrub Foliage = conditions: 1, 2, 4 and 7 days after a single foliar application, 5 equals profound desiccation
From the text: (§1) The herbicides were applied in the “spray to drip” amount or at a calibrated 20-60 gallons/acre. “Spray to drip” is an uncalibrated application of fluid to foliage, where sufficient spray volume is used to sufficiently saturate the foliage surface until excess fluid begins to drip from the foliage.

soybeans [2] = experiment: Synergistic relationships: succinic acid + caprylic acid, succinic acid + sodium salicylate, testing soybeans; format: in vivo; conditions: 3 days after a single foliar application, soybean Stine 2250
From the text: as §1

Cotton = conditions: 2 days after a single foliar application
From the text: as §1

Turf = experiment: Synergistic relationships between succinic acid and caprylic acid (or sodium salicylate), testing turf; format: in vivo; conditions: 2 days after a single foliar application, 5 equals profound desiccation
From the text: as §1

[3] = Measurement of pH values for test desiccants (Example 55); format: physicochemical
soybeans [4] = experiment: Synergistic relationships between succinic acid and caprylic acid at different application rates, testing soybeans; format: in vivo; conditions: 2 days after a single foliar application, average of 2 sites, soybean Stine 2250
From the text: as §1

[5] = tested on: 60 G/a: redroot pigweed, velvetleaf, snapbeans, cotton and potatoes; spray to drip: black nightshade, lambsquarter, foxtail and snapbeans; conditions: footnote
From the text: as §1

[6] = tested on: 60 G/a: velvetleaf, black nightshade, redroot pigweed, foxtail and snapbeans; spray to drip: black nightshade, velvetleaf, foxtail and snapbeans; experiment: Efficacy of 1.5% succinic acid with oleic, caprylic or pelargonic acid in an emulsification system (Emsorb 6900); format: in vivo; conditions: footnote
From the text: as §1

[7] = tested on: 60 G/a: redroot pigweed, foxtail and velvetleaf; spray to drip: foxtail, dry beans and pigweed; experiment: Herbicidal activity: caprylic acid and succinic acid +/- ammonium sulfate; format: in vivo; conditions: footnote
From the text: as §1

[8] = tested on: cotton plants, DeltaPine NuCotn 33-b, open boll; experiment: Synergistic relationships between 5% caprylic/capric (c/c) and succinic acid: desiccation of cotton plants; format: in vivo; conditions: footnote
From the text: (§2) The herbicides were applied in the “spray to drip” amount or at a calibrated 20-60 gallons/acre. “Spray to drip” is an uncalibrated application of fluid to foliage, where sufficient spray volume is used to sufficiently saturate the foliage surface until excess fluid begins to drip from the foliage. In general, about 5 to 200 gallons/acre, preferably 20-100 gallons/acre can be effective.

[9] = tested on: cotton (DeltaPine NuCotn 33b), potatoes (Snowden), pigweed, sudan grass, wheat, foxtail, dry beans and velvetleaf; experiment: Synergistic relationships between 5% caprylic/capric (c/c) and succinic acid; format: in vivo; conditions: footnote
From the text: as §2

[10] = tested on: Cotton (DeltaPine NuCotn 33b); experiment: Synergistic relationship between caprylic/capric (c/c) and succinic acid as harvest aids, cotton; format: in vivo; conditions: footnote; cotton and potatoes
From the text: as §2

[11] = tested on: cotton (DeltaPine NuCotn 33b) foliage; experiment: Herbicidal activity on cotton foliage: succinic acid and caprylic/capric acid (c/c) combinations; format: in vivo; conditions: footnote
From the text: as §2

[12] = tested on: 60 G/a: nightshade, pigweed, foxtail barnyard grass, sudan grass and cotton (DeltaPine NuCotn 33b); spray to drip: Kentucky bluegrass, nutsedge, barnyard …; experiment: Herbicidal activities: succinic acid and caprylic/capric acid (c/c) combinations; format: in vivo; conditions: footnote
From the text: as §2

[13] = tested on: 40 G/a: crab grass, chickweed and common lambsquarter; 60 G/a: redtop, pigweed, foxtail; spray to drip: barnyard grass, foxtail, sudan grass and nutsedge; experiment: Herbicidal combinations of caprylic/capric (c/c) or pelargonic acid with equimolar succinic acid and ammonium succinate, on weed varieties; format: in vivo; conditions: footnote
[14] = tested on: Kentucky bluegrass, barnyard grass, crab grass, pigweed, redtop, nutsedge, wheat and foxtail; experiment: Enhancement of RoundUp Ultra (+/- ammonium sulfate) by succinic acid, 1 pint/acre, no surfactant; format: in vivo; conditions: footnote
From the text: as §1

[15] = tested on: barnyard grass, green foxtail, sudan grass and pigweed; experiment: Enhancement of RoundUp Ultra (+/- ammonium sulfate) by succinic acid, 1 pint/acre, with Sylgard 309; format: in vivo; conditions: footnote
From the text: as §1

[16] = tested on: sudan grass, green foxtail, barnyard grass and pigweed; experiment: Enhancement of RoundUp Ultra (+/- ammonium sulfate) by succinic acid, 1 quart per acre; format: in vivo; conditions: footnote
From the text: as §1

O=C([O-])c1ccccc1O.[Na+] [Sodium Salicylate (0.5%)]
pH Value [1]: 4.48

O=C([O-])c1ccccc1O.[Na+] [Sodium Salicylate (1%)]
Overall effect, 17 evaluations (average) (Turf and Shrub Foliage): 1.35 | Foliage Affected (%) (soybeans [2]): 15-20% | Overall Effect (soybeans [2]; 5 equals profound desiccation): 1.5

O=C([O-])c1ccccc1O.[Na+] [Sodium Salicylate (1.0%)]
Foliage Affected (%) (Cotton): <70% | Overall Effect (Turf): 1.5 | pH Value [3]: 5.63

O=C(O)CCC(=O)O [Succinic Acid (0.5)]
Overall Effect (Turf): 0

O=C(O)CCC(=O)O [Succinic Acid (1.0%)]
Foliage Affected (%) (Cotton): No effect | Foliage Affected (%) (soybeans [4]): 0% | Overall Effect (soybeans [4]; 5 equals profound desiccation): 0 | pH Value [3]: 1.85

O=C(O)CCC(=O)O [Succinic Acid (2%)]
Overall effect, 17 evaluations (average) (Turf and Shrub Foliage): 0.24

O=C(O)CCC(=O)O [succinic acid]
Rating of succinic acid alone [5]: Succinic acid, alone, had a rating of zero. Succinic acid was synergistic with oleic, caprylic and pelargonic acids | Rating of succinic acid alone [6]: Succinic acid, alone, had a rating of zero. Succinic acid was synergistic with oleic, caprylic and pelargonic acids | Rating of succinic acid alone [7]: Succinic acid, alone, had a rating of zero. Caprylic acid + succinic acid was synergistic | Rating of succinic acid alone [8]: Treatment of plants with succinic acid, alone, had a rating of zero | Rating of succinic acid alone [9]: Treatment of plants with succinic acid, alone, had a rating of zero | Rating of succinic acid alone [10]: Treatment of plants with succinic acid, alone, had a rating of zero | Rating of succinic acid tested alone [11]: Since succinic acid tested alone had a rating of zero, caprylic/capric + succinic acid was synergistic | Rating of succinic acid alone [12]: Since succinic acid, alone had a rating of zero, caprylic/capric + succinic acid was synergistic | Rating of additive tested alone [13]: Since succinic acid (or ammonium succinate) tested alone had a rating of zero, pelargonic acid (or c/c) + succinic acid (or ammonium succinate) were synergistic. The exception was: 3% pelargonic acid + 1.26% ammonium succinate | Rating of succinic acid tested alone [14]: Succinic acid tested alone had a rating of zero. RoundUp Ultra, alone or RoundUp Ultra + ammonia sulfate were synergistic with succinic acid | Rating of succinic acid tested alone [15]: Succinic acid tested alone had a rating of zero. RoundUp Ultra, alone or RoundUp Ultra + ammonium sulfate were synergistic with succinic acid. | Rating of succinic acid tested alone [16]: Succinic acid tested alone had a rating of zero. RoundUp Ultra, alone or RoundUp Ultra + ammonium sulfate were synergistic with succinic acid
